Holding throughout (format): functional
The test system of experiment [1] is Staphylococcus aureus. Description: Antibacterial activity against Staphylococcus aureus by two-fold serial dilution assay.
The test system of experiment [2] is Enterococcus faecalis. Description: Antibacterial activity against Enterococcus faecalis at MIC after 48 hrs by disc diffusion assay. On the technique in general: In agar diffusion tests the substance spreads into inoculated agar from a disc or well.
The test system of experiment [3] is Escherichia coli. Description: Antibacterial activity against Escherichia coli by two-fold serial dilution assay.
In experiment [4] the test system is Escherichia coli. Description: Antibacterial activity against Escherichia coli at MIC after 48 hrs by disc diffusion assay.
For experiment [5], the system named is Candida albicans. The experiment can be described thus: Antifungal activity against Candida albicans CN by two-fold serial dilution assay.
Experiment [6] concerns Staphylococcus aureus. The experiment can be described thus: Antibacterial activity against Staphylococcus aureus at MIC after 48 hrs by disc diffusion assay.
Experiment [7] relates to Enterococcus faecalis. The experiment can be described thus: Antibacterial activity against Enterococcus faecalis by two-fold serial dilution assay.
Experiment [8] concerns Staphylococcus epidermidis. The experiment can be described thus: Antibacterial activity against Staphylococcus epidermidis at MIC after 48 hrs by disc diffusion assay.
For experiment [9], the system named is Klebsiella aerogenes. Description: Antibacterial activity against Enterobacter aerogenes at MIC after 48 hrs by disc diffusion assay.
Experiment [10] has as its system Candida albicans. The experiment can be described thus: Antifungal activity against Candida albicans MTCC at MIC after 7 to 10 days by disc diffusion assay.
The subject of experiment [11] is Klebsiella aerogenes. The experiment can be described thus: Antibacterial activity against Enterobacter aerogenes by two-fold serial dilution assay.
For experiment [12], the system named is Staphylococcus epidermidis. The experiment can be described thus: Antibacterial activity against Staphylococcus epidermidis by two-fold serial dilution assay.
Experiment [13] has as its system Klebsiella pneumoniae. The experiment can be described thus: Antibacterial activity against Klebsiella pneumoniae by two-fold serial dilution assay.
For experiment [14], the system named is Candida albicans. The experiment can be described thus: Antifungal activity against Candida albicans AI at MIC after 7 to 10 days by disc diffusion assay.
Experiment [15] deals with Streptococcus mutans. Description: Antibacterial activity against Streptococcus mutans by two-fold serial dilution assay.
The subject of experiment [16] is Streptococcus mutans. The experiment can be described thus: Antibacterial activity against Streptococcus mutans at MIC after 48 hrs by disc diffusion assay.
The test system of experiment [17] is Candida albicans. Description: Antifungal activity against Candida albicans AI by two-fold serial dilution assay.
Experiment [18] concerns Candida albicans. The experiment can be described thus: Antifungal activity against Candida albicans MTCC by two-fold serial dilution assay.
Experiment [19] has as its system Klebsiella pneumoniae. The experiment can be described thus: Antibacterial activity against Klebsiella pneumoniae at MIC after 48 hrs by disc diffusion assay.
Experiment [20] concerns Candida albicans. The experiment can be described thus: Antifungal activity against Candida albicans CN at MIC after 7 to 10 days by disc diffusion assay.

Results on 11 molecules are retold here after ChEMBL document CHEMBL2424569, “Synthesis of halogenated derivatives of thymol and their antimicrobial activities” (2013).

The structures appear in SMILES notation. In brackets after ≈: the same amount, converted by molar mass. Activity calls are given as the source filed them. No cut-off for these calls is given here.

For `Cc1c(Cl)cc(C(C)C)c(O)c1Br`, the outcome in experiment [1], in [2], in experiment [3], in [4], in experiment [5] and in [6] was inactive. Further, the result in [7], in [8], in experiment [9], in experiment [10], in experiment [11] and in experiment [12] was inactive. The result in experiment [13], in [14], in [15], in experiment [16], in experiment [17] and in [18] was inactive. In addition, the outcome in experiment [19] and in experiment [20] was inactive.

Regarding `Cc1c(Cl)cc(C(C)C)c(O)c1Cl`, the result in experiment [1], in experiment [2], in experiment [3], in experiment [4], in [5] and in experiment [6] was inactive. Further, the outcome in [7], in experiment [8], in [9], in experiment [10], in experiment [11] and in experiment [12] was inactive. The result in experiment [13], in [14], in experiment [15], in experiment [16], in experiment [17] and in experiment [18] was inactive. The outcome in experiment [19] and in experiment [20] was inactive.

Usually MIC stands for the lowest concentration that inhibits growth of the organism. Consider `Cc1cc(O)c(C(C)C)cc1Cl` [CHLOROTHYMOL], for which the MIC in experiment [1] is 12.5 µg/mL (≈ 67.7 µM); in experiment [5], 100 µg/mL (≈ 542 µM); in [12] it was 25 µg/mL (≈ 135 µM); in experiment [17] it was 100 µg/mL (≈ 542 µM); in experiment [18], 100 µg/mL (≈ 542 µM). The “inhibition zone (IZ)” value worked out at 5 mm in [6]; 6 mm in experiment [8]; 20 mm in experiment [10]; 30 mm in experiment [14]; 10 mm in experiment [20].

With `Cc1c(Br)cc(C(C)C)c(O)c1Br`, the values for the MIC in experiment [1] and in [12] were 250 µg/mL (≈ 812 µM) and 1000 µg/mL (≈ 3250 µM), respectively. Also, the outcome in [5], in experiment [10], in experiment [14], in experiment [17], in [18] and in [20] was inactive. The “inhibition zone (IZ)” value is given as 13 mm in experiment [6] and 16 mm in experiment [8].

As to `CN[C@@H]1[C@H](O[C@H]2[C@H](O[C@H]3[C@H](O)[C@@H](O)[C@H](N=C(N)N)[C@@H](O)[C@@H]3N=C(N)N)O[C@@H](C)[C@]2(O)C=O)O[C@@H](CO)[C@H](O)[C@H]1O` [STREPTOMYCIN], the MIC came out at 12.5 µg/mL (≈ 21.5 µM) in experiment [1]; 1.35 µg/mL (≈ 2.32 µM) in experiment [3]; 0.36 µg/mL (≈ 0.619 µM) in experiment [7]; 2.71 µg/mL (≈ 4.66 µM) in experiment [11]; 6.35 µg/mL (≈ 10.9 µM) in experiment [12]; 2.71 µg/mL (≈ 4.66 µM) in experiment [13]. In experiment [15], this molecule registered an MIC of 6.35 µg/mL (≈ 10.9 µM). The “inhibition zone (IZ)” value was 10 mm in experiment [2]; 9 mm in experiment [4]; 9 mm in [6]; 9 mm in experiment [8]; 10 mm in [9]; 13 mm in [16]. The “inhibition zone (IZ)” value in experiment [19] came out at 9 mm.

With `COc1cc(C)c(I)cc1C(C)C`, the outcome in [1], in experiment [2], in experiment [3], in [4], in experiment [5] and in experiment [6] was inactive. Moreover, the result in [7], in experiment [8], in [9], in experiment [10], in [11] and in experiment [12] was inactive. The result in [13], in [14], in [15], in experiment [16], in experiment [17] and in experiment [18] was inactive. Moreover, the outcome in experiment [19] and in experiment [20] was inactive.

Turning to `C[C@@H]1[C@H](O)[C@@H](C)/C=C/C=C/C=C/C=C/C=C/C=C/C=C/[C@H](O[C@@H]2O[C@H](C)[C@@H](O)[C@H](N)[C@@H]2O)C[C@@H]2O[C@](O)(C[C@@H](O)C[C@@H](O)[C@H](O)CC[C@@H](O)C[C@@H](O)CC(=O)O[C@H]1C)C[C@H](O)[C@H]2C(=O)O` [AMPHOTERICIN B], the MIC in experiment [5], in experiment [17] and in experiment [18] was 100 µg/mL (≈ 108 µM) throughout. The results for the “inhibition zone (IZ)” value in experiment [10], in experiment [14] and in [20] were 20 mm, 30 mm and 10 mm, respectively.

`COc1cc(C)ccc1C(C)C`: the outcome in experiment [1], in [2], in [3], in experiment [4], in experiment [5] and in experiment [6] was inactive. For the same molecule, the outcome in experiment [7], in experiment [8], in experiment [9], in experiment [10], in [11] and in experiment [12] was inactive. For the same molecule, the outcome in experiment [13], in experiment [14], in [15], in [16], in experiment [17] and in experiment [18] was inactive. In addition, the outcome in experiment [19] and in experiment [20] was inactive.

As for `Cc1ccc(C(C)C)c(O)c1Br`, the outcome in experiment [5], in [10], in [14], in experiment [17], in experiment [18] and in experiment [20] was inactive. In addition, the “inhibition zone (IZ)” value in experiment [9] is 2 mm; in [16], 3 mm. For the same molecule, the MIC came to 100 µg/mL (≈ 436 µM) in experiment [11] and 125 µg/mL (≈ 546 µM) in experiment [15].

Take `Cc1ccc(C(C)C)c(O)c1` [THYMOL]: the MIC in experiment [1] came to 125 µg/mL (≈ 832 µM); in experiment [3], 100 µg/mL (≈ 666 µM); in experiment [5], 100 µg/mL (≈ 666 µM); in experiment [7] it was 62.5 µg/mL (≈ 416 µM); in experiment [11], 125 µg/mL (≈ 832 µM); in experiment [12], 32.2 µg/mL (≈ 215 µM). Also, the MIC in [13] is 250 µg/mL (≈ 1660 µM); in experiment [15], 62.5 µg/mL (≈ 416 µM); in [17], 100 µg/mL (≈ 666 µM); in experiment [18], 100 µg/mL (≈ 666 µM). Besides, the “inhibition zone (IZ)” value in experiment [2] is listed as 10 mm; in [4] it was 3 mm; in [6], 12 mm; in [8] it was 18 mm; in experiment [9] it was 8 mm; in experiment [10], 8 mm. Also, the “inhibition zone (IZ)” value in experiment [14] turned out to be 5 mm; in [16] it was 11 mm; in experiment [19], 6 mm; in [20] it was 6 mm.

Regarding `COc1c(C(C)C)ccc(C)c1Br`, the result in [1], in experiment [2], in [3], in experiment [4], in experiment [5] and in [6] was inactive. The result in experiment [7], in [8], in [9], in experiment [10], in experiment [11] and in experiment [12] was inactive. Moreover, the outcome in [13], in experiment [14], in [15], in experiment [16], in experiment [17] and in experiment [18] was inactive. Moreover, the result in [19] and in experiment [20] was inactive.
